For 13 compounds, IC50 results are on record in US9371328B2, “Imidazopyridazinecarbonitriles useful as kinase inhibitors” (BRISTOL-MYERS SQUIBB COMPANY, priority 2008, dated 2016).

The target in one test is T1, CK2A1 (CK2α/β) (Homo sapiens, UniProt P68400).
T1 construct: made in house
The test can be described thus: CK2 kinase assay, CK2A1 (CK2α/β). Type of test: biochemical. The conditions noted are these: Table 1; read-out: CK2A1 (CK2α/β) (IC50). The procedure: (§1) The effectiveness of compounds of the present invention as inhibitors of protein kinases can be readily tested by assays known to those skilled in the art. For example, in vitro protein kinase assays may be conducted with a relevant purified protein kinase and an appropriate synthetic substrate to determine the inhibitory activity of the compounds. […] Reaction mixtures were incubated at 30° C. for 1 hour, and reaction products were captured by binding to phosphocellulose (P81) filter plates. Incorporation of radioactive phosphate into the peptide substrate was determined by liquid scintillation counting. The potency of compounds in inhibiting CK2 is expressed as IC50, defined as the concentrations of compounds required to inhibit the enzymatic activity by 50%.
(§2) The inhibitory activity of the instant compounds may also be measured by recombinant CK2 holoenzyme kinase assays. The assays were performed in U-bottom 384-well plates. The final assay volume was 30 μl prepared from 15 μl additions of enzyme and substrates (fluoresceinated peptide FL-RRRADDSDDDDD-NH2 and ATP) and test compounds in assay buffer (20 mM HEPES pH 7.4, 10 mM MgCl2, 100 mM NaCl, 0.015% Brij35 and 0.25 mM DTT). The reaction was initiated by the combination of bacterially expressed, CK2 α/β or CK2 α′/β holoenzyme with substrates and test compounds. The reaction was incubated at room temperature for 60 minutes and terminated by adding 30 μl of 35 mM EDTA to each sample. The reaction mixture was analyzed on the Caliper LABCHIP® 3000 (Caliper, Hopkinton, Mass.) by electrophoretic separation of the fluorescent substrate and phosphorylated product. Inhibition data were calculated by comparison to no enzyme control reactions for 100% inhibition and vehicle-only reactions for 0% inhibition. The final concentration of reagents in the CK2 α/β assay was 25 μM ATP, 1.5 μM FL-RRRADDSDDDDD-NH2, […] CK2 α/β holoenzyme, and 1.6% DMSO. The final concentration of reagents in the CK2 α′/β assay was 10 μM ATP, 1.5 μM FL-RRRADDSDDDDD-NH2, 100 pM CK2 α′/β holoenzyme, and 1.6% DMSO. Dose response curves were generated to determine the concentration required inhibiting 50% of kinase activity (IC50). Compounds were dissolved at 10 mM in dimethylsulfoxide (DMSO) and evaluated at eleven concentrations. IC50 values were derived by non-linear regression analysis.

The next test deals with T2, CK2A2 (CK2α′/β) (Homo sapiens, UniProt P19784).
T2 construct: made in house
The test is described as follows: CK2 kinase assay, CK2A2 (CK2α′/β). Type of test: biochemical. The conditions noted are these: Table 1; read-out: CK2A2 (CK2α′/β) (IC50). On the procedure: as §1, §2

The subject of a further test is HCT116. The test is described as follows: Cell proliferation inhibition assay (MTT/MTS). The format is cell-based. Particulars: Homo sapiens, HCT-116, Table 1, 72 h with compound. The procedure: Compounds were evaluated for their ability to inhibit cell proliferation, using an assay that measures mitochondrial metabolic activity, that is directly correlated with cell numbers. Cells were plated at 2000 cells/well in 96-well plates and were cultured for 24 h in RPMI-1640 supplemented with 2% fetal bovine serum, before test compounds were added. Compounds were diluted in culture medium such that the final concentration of dimethyl sulfoxide never exceeded 1%. Following the addition of compounds, the cells were cultured for an additional 72 h before cell viability was determined by measuring the conversion of 3-(4,5-dimethylthiazol-2-yl)-2,5-diphenyltetrazolium bromide (MTT) dye using the CellTiter96 kit (Promega) or by measuring the conversion of [3-(4,5-dimethylthiazol-2-yl)-5-(3-carboxymethoxyphenyl)-2-(4-sulfophenyl)-2H-tetrazolium (MTS) dye using the CELLTITER 96® AQueous (Promega).

The structures appear in SMILES notation. A value given as a limit tells only on which side of the number the result lay.

T1 sequence (P68400 whole entry, species assumed): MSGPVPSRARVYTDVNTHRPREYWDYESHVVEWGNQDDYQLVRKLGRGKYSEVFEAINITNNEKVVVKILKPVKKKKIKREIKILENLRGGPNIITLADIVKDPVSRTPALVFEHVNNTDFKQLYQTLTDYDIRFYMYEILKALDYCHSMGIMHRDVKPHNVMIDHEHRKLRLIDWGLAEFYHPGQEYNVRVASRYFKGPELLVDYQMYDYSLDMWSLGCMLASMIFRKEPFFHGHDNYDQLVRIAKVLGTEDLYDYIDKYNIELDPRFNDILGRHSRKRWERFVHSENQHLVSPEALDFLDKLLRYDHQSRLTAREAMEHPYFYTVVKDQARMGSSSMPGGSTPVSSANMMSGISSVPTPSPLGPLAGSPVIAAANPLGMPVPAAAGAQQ
T1 sequence (P67870 whole entry partner, species assumed): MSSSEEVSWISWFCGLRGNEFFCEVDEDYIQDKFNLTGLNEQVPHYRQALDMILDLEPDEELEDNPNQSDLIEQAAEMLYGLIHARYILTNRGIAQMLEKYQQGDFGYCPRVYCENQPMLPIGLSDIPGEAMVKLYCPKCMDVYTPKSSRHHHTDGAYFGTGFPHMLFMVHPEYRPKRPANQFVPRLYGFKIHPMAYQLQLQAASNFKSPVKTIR
T2 sequence (P19784 whole entry, species assumed): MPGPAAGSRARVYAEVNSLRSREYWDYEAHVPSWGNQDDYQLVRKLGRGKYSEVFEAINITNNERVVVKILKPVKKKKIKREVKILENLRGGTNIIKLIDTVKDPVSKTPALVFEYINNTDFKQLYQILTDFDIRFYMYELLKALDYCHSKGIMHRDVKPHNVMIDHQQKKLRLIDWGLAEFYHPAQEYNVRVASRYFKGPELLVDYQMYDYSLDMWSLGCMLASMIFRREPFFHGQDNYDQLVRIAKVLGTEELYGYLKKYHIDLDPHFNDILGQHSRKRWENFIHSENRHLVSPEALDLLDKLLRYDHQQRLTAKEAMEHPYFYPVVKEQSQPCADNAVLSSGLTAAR
T2 sequence (P67870 whole entry partner, species assumed): as the sequence (P67870 whole entry partner, species assumed) above

For `COc1cc(Nc2cc(NC3CC3)c3ncc(C#N)n3n2)cc(-n2nnnc2C)c1` [Example 37, 8-(Cyclopropylamino)-6-((3-methoxy-5-(5-methyl-1H-tetrazol-1-yl)phenyl)amino) imidazo[1,2-b]pyridazine-3-carbonitrile], the IC50 at CK2A1 (CK2α/β) amounted to 11 nM; at CK2A2 (CK2α′/β), 4.5 nM; in the test with HCT116, 163 nM.
Turning to `Cc1ccc(Nc2cc(Nc3ccccn3)c3ncc(C#N)n3n2)cc1C#N` [Example 196, 6-((3-Cyano-4-methylphenyl)amino)-8-(2-pyridinylamino)imidazo[1,2-b]pyridazine-3-carbonitrile], the IC50 is 12.2 nM on CK2A1 (CK2α/β), 3.4 nM at CK2A2 (CK2α′/β) and 65 nM in the test with HCT116.
Taken in the same sequence, the figures for `N#Cc1cnc(Nc2cc(NC3CC3)c3ncc(C#N)n3n2)s1` [Example 57, 6-((5-Cyano-1,3-thiazol-2-yl)amino)-8-(cyclopropylamino) imidazo[1,2-b]pyridazine-3-carbonitrile] were 310 nM, 58.2 nM and 521 nM.
The matching figures for `COC(=O)Nc1cc(Nc2cc(NC3CC3)c3ncc(C#N)n3n2)ccc1C(=O)N1CCN(C)CC1` [Example 93, Methyl (5-((3-cyano-8-(cyclopropylamino)imidazo [1,2-b]pyridazin-6-yl)amino)-2-((4-methyl-1-piperazinyl)carbonyl)phenyl) carbamate]: 712 nM, 68.4 nM and above 1000 nM.
The matching figures for `CC(=O)N1CCc2ccc(Nc3cc(NC4CC4)c4ncc(C#N)n4n3)cc21` [Example 64, 6-((1-Acetyl-2,3-dihydro-1H-indol-6-yl)amino)-8-(cyclopropylamino)imidazo [1,2-b]pyridazine-3-carbonitrile]: 12 nM, 1 nM and 48 nM.
Consider `N#Cc1ccc(Cl)c(Nc2cc(NC3CC3)c3ncc(C#N)n3n2)c1` [Example 47, 6-((2-Chloro-5-cyanophenyl)amino)-8-(cyclopropylamino) imidazo[1,2-b]pyridazine-3-carbonitrile], for which the IC50 is 7.4 nM on CK2A1 (CK2α/β), 5.2 nM at CK2A2 (CK2α′/β) and 41 nM with HCT116.
For `CCc1ccc(Nc2cc(NC3CC3)c3ncc(C#N)n3n2)cc1NS(C)(=O)=O` [Example 235, N-(5-((3-Cyano-8-(cyclopropylamino)imidazo [1,2-b]pyridazin-6-yl)amino)-2-ethylphenyl) methanesulfonamide], the IC50 at CK2A1 (CK2α/β) was found to be 25 nM; on CK2A2 (CK2α′/β) it was 6.4 nM; in the test with HCT116, 433 nM.
On to `CN1CCN(C(=O)c2ccc(Nc3cc(NC4CC4)c4ncc(C#N)n4n3)cc2N)CC1` [Example 89, 6-((3-Amino-4-((4-methyl-1-piperazinyl)carbonyl)phenyl)amino)-8-(cyclopropylamino)imidazo [1,2-b]pyridazine-3-carbonitrile], for which the figures for the IC50 on CK2A1 (CK2α/β), on CK2A2 (CK2α′/β) and in the test on HCT116 were 6670 nM, 940 nM and above 1000 nM, respectively.
Taken in the same sequence, the figures for `N#Cc1cnc2c(NC3CC3)cc(Nc3cccc(-c4cccnc4)c3)nn12` [Example 214, 8-(Cyclopropylamino)-6-((3-(3-pyridinyl)phenyl)amino) imidazo[1,2-b]pyridazine-3-carbonitrile] were 596 nM, 119 nM and above 10000 nM.
Taken in the same sequence, the figures for `COc1ccc(Nc2cc(NC3CC3)c3ncc(C#N)n3n2)cc1OC` [Example 56, 8-(Cyclopropylamino)-6-((3,4-dimethoxyphenyl)amino)imidazo[1,2-b] pyridazine-3-carbonitrile] were 155 nM, 35.9 nM and 482 nM.
The matching figures for `N#Cc1ccnc(Nc2cc(NC3CC3)c3ncc(C#N)n3n2)c1` [Example 168, 6-((4-Cyano-2-pyridinyl)amino)-8-(cyclopropylamino) imidazo[1,2-b]pyridazine-3-carbonitrile]: 11.9 nM, 4.9 nM and 128 nM.
As for `CCN(CC)c1ccc(Nc2cc(NC3CC3)c3ncc(C#N)n3n2)cc1` [Example 244, 8-(Cyclopropylamino)-6-((4-(diethylamino)phenyl)amino)imidazo[1,2-b]pyridazine-3-carbonitrile], the IC50 is 102 nM on CK2A1 (CK2α/β), 22.8 nM at CK2A2 (CK2α′/β) and 1110 nM in the test with HCT116.
Taken in the same sequence, the figures for `Cc1cc(Cl)c(Nc2cc(Nc3ccccn3)c3ncc(C#N)n3n2)cc1C#N` [Example 233, 6-((2-Chloro-5-cyano-4-methylphenyl)amino)-8-(2-pyridinylamino)imidazo[1,2-b]pyridazine-3-carbonitrile] were 7.1 nM, 2.3 nM and 128 nM.
